# Assay results: ChEMBL document CHEMBL5338826, “Design and Synthesis of Inhibitors of the E3 Ligase SMAD Specific E3 Ubiquitin Protein Ligase 1 as a Treatment for Lung Remodeling in Pulmonary Arterial Hypertension” (J Med Chem, 2023)
# Active and inactive are the calls of the source. The calls are words filed in the database; no cut-off is given here.
# Target: E3 ubiquitin-protein ligase SMURF2 (Homo sapiens, UniProt Q9HAU4)
# Assay: Inhibition of SMURF2 (unknown origin) assessed as self-ubiquitination by TR-FRET/biochemical assay
# Settings: not given
# Sequence of E3 ubiquitin-protein ligase SMURF2 (Q9HAU4 whole entry): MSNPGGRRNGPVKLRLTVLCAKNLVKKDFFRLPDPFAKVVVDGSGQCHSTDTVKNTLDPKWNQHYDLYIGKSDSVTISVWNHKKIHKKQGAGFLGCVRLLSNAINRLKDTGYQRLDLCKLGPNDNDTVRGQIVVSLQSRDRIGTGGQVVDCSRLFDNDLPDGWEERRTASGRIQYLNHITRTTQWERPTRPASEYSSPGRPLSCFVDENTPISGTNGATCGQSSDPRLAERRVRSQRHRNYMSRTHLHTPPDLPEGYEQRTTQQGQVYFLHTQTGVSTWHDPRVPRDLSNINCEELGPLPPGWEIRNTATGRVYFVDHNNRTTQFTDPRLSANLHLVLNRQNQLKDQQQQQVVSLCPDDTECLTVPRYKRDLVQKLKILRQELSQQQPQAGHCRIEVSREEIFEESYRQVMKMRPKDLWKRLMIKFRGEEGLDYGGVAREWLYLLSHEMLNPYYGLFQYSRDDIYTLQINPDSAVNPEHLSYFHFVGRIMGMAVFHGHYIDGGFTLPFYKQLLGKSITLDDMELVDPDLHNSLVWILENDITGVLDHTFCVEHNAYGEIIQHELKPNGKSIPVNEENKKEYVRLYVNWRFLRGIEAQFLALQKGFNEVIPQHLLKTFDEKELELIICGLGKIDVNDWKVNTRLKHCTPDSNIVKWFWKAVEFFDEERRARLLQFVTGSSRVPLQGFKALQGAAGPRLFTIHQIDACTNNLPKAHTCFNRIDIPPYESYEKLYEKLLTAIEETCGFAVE
row,Compound,IC50 [µM]
1,Cc1c(C(=O)O)noc1-c1ccc(C2CC2)cc1Cl,2.9
2,Cc1c(C(=O)Nc2c(C)n(C)n(C3CCCCC3)c2=O)nnn1-c1ccc(C2CC2)cc1Cl,> 20
3,COc1ccc2c(c1)CCc1c(C(=O)Nc3c(C)n(C)n(-c4ccccc4)c3=O)noc1-2,> 10

# Tested on: not listed separately
# Assay: Half life in rat at 3 mg/kg, po and 1 mg/kg, iv
# Format: ADME, organism-based
# Settings: in vivo
row,Compound,half-life [min]
1,Cc1c(C(=O)O)noc1-c1ccc(C2CC2)cc1Cl,96
2,Cc1c(C(=O)Nc2c(C)n(C)n(C3CCCCC3)c2=O)nnn1-c1ccc(C2CC2)cc1Cl,474
3,Cc1c(C(=O)Nc2c(C)n(C)n(-c3ccccc3F)c2=O)noc1-c1ccc(C2CC2)cc1Cl,114

# Tested on: not listed separately
# Assay: Oral bioavailability in rat at 3 mg/kg
# Format: ADME, organism-based
# Settings: in vivo
row,Compound,bioavailability [%]
1,Cc1c(C(=O)O)noc1-c1ccc(C2CC2)cc1Cl,67
2,Cc1c(C(=O)Nc2c(C)n(C)n(C3CCCCC3)c2=O)nnn1-c1ccc(C2CC2)cc1Cl,82
3,Cc1c(C(=O)Nc2c(C)n(C)n(-c3ccccc3F)c2=O)noc1-c1ccc(C2CC2)cc1Cl,97

# Tested on: Rattus norvegicus
# Assay: Anti-remodeling efficacy in hypoxia/Sugen 5416-induced pulmonary arterial hypertension rat model assessed as blocked of progression of phenotype of muscularization in the pulmonary vasculature at 3 mg/kg measured after 14 days relative to control
# Format: functional, organism-based
# Settings: time 14.0 day
row,Compound,Activity
1,Cc1c(C(=O)Nc2c(C)n(C)n(-c3ccccc3F)c2=O)noc1-c1ccc(C2CC2)cc1Cl,Active

# Tested on: Rattus norvegicus
# Assay: Anti-remodeling efficacy in hypoxia/Sugen 5416-induced pulmonary arterial hypertension rat model assessed as muscularized vessels in the pulmonary vasculature at 10 mg/kg measured till end of the study relative to control
# Format: functional
# Settings: not given
row,Compound,Activity [%]
1,Cc1c(C(=O)Nc2c(C)n(C)n(C3CCCCC3)c2=O)nnn1-c1ccc(C2CC2)cc1Cl,18

# Tested on: not listed separately
# Assay: Cmax in rat at 3 mg/kg, po
# Format: ADME, organism-based
# Design: dose 3 mg/kg, route po
# Settings: in vivo
row,Compound,Cmax [nM]
1,Cc1c(C(=O)O)noc1-c1ccc(C2CC2)cc1Cl,541
2,Cc1c(C(=O)Nc2c(C)n(C)n(C3CCCCC3)c2=O)nnn1-c1ccc(C2CC2)cc1Cl,2010
3,Cc1c(C(=O)Nc2c(C)n(C)n(-c3ccccc3F)c2=O)noc1-c1ccc(C2CC2)cc1Cl,1080

# Tested on: not listed separately
# Assay: Plasma protein binding in rat
# Format: ADME, cell-free
# Settings: read-out: PPB
row,Compound,fraction unbound
1,Cc1c(C(=O)O)noc1-c1ccc(C2CC2)cc1Cl,< 0.01
2,Cc1c(C(=O)Nc2c(C)n(C)n(C3CCCCC3)c2=O)nnn1-c1ccc(C2CC2)cc1Cl,< 0.01
3,Cc1c(C(=O)Nc2c(C)n(C)n(-c3ccccc3F)c2=O)noc1-c1ccc(C2CC2)cc1Cl,< 0.01

# Tested on: Rattus norvegicus
# Assay: Anti-remodeling efficacy in hypoxia/Sugen 5416-induced pulmonary arterial hypertension rat model assessed as blocked of progression of phenotype of muscularization in the pulmonary vasculature at 10 mg/kg measured after 14 days relative to control
# Format: functional, organism-based
# Settings: time 14.0 day
row,Compound,Activity
1,Cc1c(C(=O)Nc2c(C)n(C)n(-c3ccccc3F)c2=O)noc1-c1ccc(C2CC2)cc1Cl,Active

# Tested on: Rattus norvegicus
# Assay: Anti-remodeling efficacy in hypoxia/Sugen 5416-induced pulmonary arterial hypertension rat model assessed as reversal of vessel muscularization in the pulmonary vasculature at 10 mg/kg measured after 14 days relative to control
# Format: functional, organism-based
# Settings: time 14.0 day
row,Compound,Activity
1,Cc1c(C(=O)Nc2c(C)n(C)n(-c3ccccc3F)c2=O)noc1-c1ccc(C2CC2)cc1Cl,Active

# Organism: Rattus norvegicus
# Assay: Anti-remodeling efficacy in hypoxia/Sugen 5416-induced pulmonary arterial hypertension rat model assessed as muscularized vessels in the pulmonary vasculature measured after 14 days relative to control
# Format: functional
# Settings: time 14 day
row,Compound,Activity [%]
1,NC(=O)c1ccc(-c2nc(-c3ccccn3)c(-c3ccc4c(c3)OCO4)[nH]2)cc1 [SB-431542],15

# Target: T1, E3 ubiquitin-protein ligase SMURF1 (Homo sapiens, UniProt Q9HCE7)
# Assay: Inhibition of SMURF1 (unknown origin) assessed as self-ubiquitination by TR-FRET/biochemical assay
# Settings: not given
# T1 sequence (Q9HCE7 whole entry): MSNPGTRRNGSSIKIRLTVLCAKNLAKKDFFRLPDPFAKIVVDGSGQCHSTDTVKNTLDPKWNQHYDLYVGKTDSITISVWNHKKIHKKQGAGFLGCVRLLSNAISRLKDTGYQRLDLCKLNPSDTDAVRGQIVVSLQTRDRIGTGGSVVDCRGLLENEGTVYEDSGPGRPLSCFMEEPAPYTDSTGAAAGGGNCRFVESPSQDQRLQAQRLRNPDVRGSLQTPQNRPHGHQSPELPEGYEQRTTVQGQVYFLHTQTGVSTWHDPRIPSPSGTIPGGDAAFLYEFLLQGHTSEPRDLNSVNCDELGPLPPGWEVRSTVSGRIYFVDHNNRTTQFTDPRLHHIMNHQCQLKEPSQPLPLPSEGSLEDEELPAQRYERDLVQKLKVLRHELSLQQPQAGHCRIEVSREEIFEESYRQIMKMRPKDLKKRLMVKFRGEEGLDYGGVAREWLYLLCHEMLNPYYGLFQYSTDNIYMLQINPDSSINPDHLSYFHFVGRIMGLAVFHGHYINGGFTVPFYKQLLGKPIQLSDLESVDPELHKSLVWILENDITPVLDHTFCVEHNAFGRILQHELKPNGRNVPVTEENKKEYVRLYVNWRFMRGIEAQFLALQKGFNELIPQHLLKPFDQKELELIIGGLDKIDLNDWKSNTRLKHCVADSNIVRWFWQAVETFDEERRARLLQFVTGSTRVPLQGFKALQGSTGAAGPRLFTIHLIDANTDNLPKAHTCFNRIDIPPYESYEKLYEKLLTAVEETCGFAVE
row,Compound,IC50 [nM]
1,Cc1c(C(=O)Nc2c(C)n(C)n(-c3ccccc3F)c2=O)noc1-c1ccc(Cl)cc1,180
2,COc1cc2ccc3c(C(=O)Nc4c(C)n(C)n(-c5ccccc5)c4=O)noc3c2cc1OC,> 10000
3,COc1ccc2c(c1)CCCc1c(C(=O)Nc3c(C)n(C)n(-c4ccccc4F)c3=O)noc1-2,200
4,Cc1c(C(=O)Nc2c(C)n(C)n(-c3ccccc3F)c2=O)noc1-c1ccc(Cl)cc1Cl,29
5,COc1ccc2c(c1)CCc1c(C(=O)Nc3c(C)n(C)n(-c4ccccc4)c3=O)noc1-2,3000
6,Cc1c(C(=O)Nc2c(C)n(C)n(-c3ccccc3F)c2=O)noc1-c1cc(Cl)ccc1Cl,280
7,Cc1c(C(=O)Nc2c(C)n(C)n(-c3ccccc3F)c2=O)noc1-c1ccc(Cl)cc1F,700
8,COc1ccc(-c2onc(C(=O)Nc3c(C)n(C)n(-c4ccccc4F)c3=O)c2C)cc1,1000
9,COc1ccc(-c2onc(C(=O)Nc3c(C)n(C)n(-c4ccccc4F)c3=O)c2C)c(C)c1,180
10,COc1ccc(-c2cc(C(=O)Nc3c(C)n(C)n(-c4ccccc4)c3=O)no2)cc1,> 10000
11,COc1ccc2c(c1)CCCc1c(C(=O)Nc3c(C)n(C)n(-c4ccccc4)c3=O)noc1-2,400
12,Cc1c(C(=O)Nc2c(C)n(C)n(-c3ccccc3F)c2=O)noc1-c1ccc(C2CC2)cc1Cl,11

# Tested on: not listed separately
# Assay: Equilibrium solubility of the compound at pH 6.8
# Format: physicochemical
# Settings: buffer
row,Compound,solubility thermodynamic [µM]
1,Cc1c(C(=O)Nc2c(C)n(C)n(-c3ccccc3F)c2=O)noc1-c1ccc(Cl)cc1,140
2,Cc1c(C(=O)O)noc1-c1ccc(C2CC2)cc1Cl,24
3,Cc1c(C(=O)Nc2c(C)n(C)n(C3CCCCC3)c2=O)nnn1-c1ccc(C2CC2)cc1Cl,190
4,Cc1c(C(=O)Nc2c(C)n(C)n(-c3ccccc3F)c2=O)noc1-c1ccc(Cl)cc1Cl,13
5,Cc1c(C(=O)Nc2c(C)n(C)n(-c3ccccc3F)c2=O)noc1-c1ccc(Cl)cc1F,530
6,COc1ccc(-c2onc(C(=O)Nc3c(C)n(C)n(-c4ccccc4F)c3=O)c2C)cc1,22
7,COc1ccc(-c2onc(C(=O)Nc3c(C)n(C)n(-c4ccccc4F)c3=O)c2C)c(C)c1,280

# Tested on: not listed separately
# Assay: AUClast in rat at 3 mg/kg, po
# Format: ADME, organism-based
# Settings: in vivo
row,Compound,AUClast [µM·h]
1,Cc1c(C(=O)O)noc1-c1ccc(C2CC2)cc1Cl,2.78
2,Cc1c(C(=O)Nc2c(C)n(C)n(C3CCCCC3)c2=O)nnn1-c1ccc(C2CC2)cc1Cl,7.38
3,Cc1c(C(=O)Nc2c(C)n(C)n(-c3ccccc3F)c2=O)noc1-c1ccc(C2CC2)cc1Cl,11.6

# Tested on: Rattus norvegicus
# Assay: Anti-remodeling efficacy in hypoxia/Sugen 5416-induced pulmonary arterial hypertension rat model assessed as muscularized vessels in the pulmonary vasculature at 10 mg/kg measured after 14 days relative to control
# Format: functional
# Settings: time 14 day
row,Compound,Activity [%]
1,Cc1c(C(=O)Nc2c(C)n(C)n(C3CCCCC3)c2=O)nnn1-c1ccc(C2CC2)cc1Cl,10

# Organism: Rattus norvegicus
# Assay: Anti-remodeling efficacy in hypoxia/Sugen 5416-induced pulmonary arterial hypertension rat model assessed as reversal of vessel muscularization in the pulmonary vasculature measured after 14 days relative to control
# Format: functional, organism-based
# Settings: time 14.0 day
row,Compound,Activity
1,NC(=O)c1ccc(-c2nc(-c3ccccn3)c(-c3ccc4c(c3)OCO4)[nH]2)cc1 [SB-431542],inactive

# Tested on: not listed separately
# Assay: Metabolic stability in rat liver microsomes assessed as half life
# Format: ADME, Microsome
# Settings: not given
row,Compound,half-life [min]
1,Cc1c(C(=O)Nc2c(C)n(C)n(-c3ccccc3F)c2=O)noc1-c1ccc(Cl)cc1,70.5
2,Cc1c(C(=O)Nc2c(C)n(C)n(-c3ccccc3F)c2=O)noc1-c1ccc(Cl)cc1Cl,16.7
3,Cc1c(C(=O)Nc2c(C)n(C)n(-c3ccccc3F)c2=O)noc1-c1ccc(Cl)cc1F,30.7
4,COc1ccc(-c2onc(C(=O)Nc3c(C)n(C)n(-c4ccccc4F)c3=O)c2C)cc1,15.8
5,COc1ccc(-c2onc(C(=O)Nc3c(C)n(C)n(-c4ccccc4F)c3=O)c2C)c(C)c1,45.2
6,Cc1c(C(=O)Nc2c(C)n(C)n(-c3ccccc3F)c2=O)noc1-c1ccc(C2CC2)cc1Cl,18.9

# Tested on: not listed separately
# Assay: Volume of distribution at steady state in rat at 3 mg/kg, po and 1 mg/kg, iv
# Format: ADME, organism-based
# Settings: in vivo
row,Compound,Vdss [L/kg]
1,Cc1c(C(=O)O)noc1-c1ccc(C2CC2)cc1Cl,1.7
2,Cc1c(C(=O)Nc2c(C)n(C)n(C3CCCCC3)c2=O)nnn1-c1ccc(C2CC2)cc1Cl,2.3
3,Cc1c(C(=O)Nc2c(C)n(C)n(-c3ccccc3F)c2=O)noc1-c1ccc(C2CC2)cc1Cl,1.5

# Tested on: Rattus norvegicus
# Assay: Anti-remodeling efficacy in hypoxia/Sugen 5416-induced pulmonary arterial hypertension rat model assessed as reversal of vessel muscularization in the pulmonary vasculature at 3 mg/kg measured after 14 days relative to control
# Format: functional, organism-based
# Settings: time 14.0 day
row,Compound,Activity
1,Cc1c(C(=O)Nc2c(C)n(C)n(-c3ccccc3F)c2=O)noc1-c1ccc(C2CC2)cc1Cl,Active

# Target: T1, E3 ubiquitin-protein ligase SMURF1
# Assay: Stabilization of SMURF1 (unknown origin) assessed as decrease in auto-ubiquitination by measuring increase in protein level by cell-based assay
# Settings: not given
row,Compound,EC50 [nM]
1,Cc1c(C(=O)Nc2c(C)n(C)n(-c3ccccc3F)c2=O)noc1-c1ccc(Cl)cc1,580
2,Cc1c(C(=O)O)noc1-c1ccc(C2CC2)cc1Cl,40
3,COc1ccc2c(c1)CCCc1c(C(=O)Nc3c(C)n(C)n(-c4ccccc4F)c3=O)noc1-2,600
4,Cc1c(C(=O)Nc2c(C)n(C)n(C3CCCCC3)c2=O)nnn1-c1ccc(C2CC2)cc1Cl,316
5,Cc1c(C(=O)Nc2c(C)n(C)n(-c3ccccc3F)c2=O)noc1-c1ccc(Cl)cc1Cl,410
6,COc1ccc2c(c1)CCc1c(C(=O)Nc3c(C)n(C)n(-c4ccccc4)c3=O)noc1-2,4660
7,Cc1c(C(=O)Nc2c(C)n(C)n(-c3ccccc3F)c2=O)noc1-c1cc(Cl)ccc1Cl,2500
8,Cc1c(C(=O)Nc2c(C)n(C)n(-c3ccccc3F)c2=O)noc1-c1ccc(Cl)cc1F,1100
9,COc1ccc(-c2onc(C(=O)Nc3c(C)n(C)n(-c4ccccc4F)c3=O)c2C)cc1,1600
10,COc1ccc(-c2onc(C(=O)Nc3c(C)n(C)n(-c4ccccc4F)c3=O)c2C)c(C)c1,250
11,COc1ccc(-c2cc(C(=O)Nc3c(C)n(C)n(-c4ccccc4)c3=O)no2)cc1,> 22000
12,COc1ccc2c(c1)CCCc1c(C(=O)Nc3c(C)n(C)n(-c4ccccc4)c3=O)noc1-2,1100
13,Cc1c(C(=O)Nc2c(C)n(C)n(-c3ccccc3F)c2=O)noc1-c1ccc(C2CC2)cc1Cl,230

# Organism: Rattus norvegicus
# Assay: Anti-remodeling efficacy in hypoxia/Sugen 5416-induced pulmonary arterial hypertension rat model assessed as blocked of progression of phenotype of muscularization in the pulmonary vasculature measured after 14 days relative to control
# Format: functional, organism-based
# Settings: time 14.0 day
row,Compound,Activity
1,NC(=O)c1ccc(-c2nc(-c3ccccn3)c(-c3ccc4c(c3)OCO4)[nH]2)cc1 [SB-431542],Active
